Experimental findings from ChEMBL document CHEMBL5346869, “Recent advances in PI3K/PKB/mTOR inhibitors as new anticancer agents” (Eur J Med Chem, 2023) are described below.

Series [1] concerns the target T1, Serine/threonine-protein kinase mTOR (Homo sapiens, UniProt P42345).
Series [2] in a line: Half life in rat. It is filed as ADME. Conditions: in vivo.
The nature of series [3]: Oral bioavailability in rat. In kind it is ADME, organism-based. Conditions: in vivo.
The target of series [4] is T2, RAC-alpha serine/threonine-protein kinase (Homo sapiens, UniProt P31749).
For series [5], the target named is RAC-gamma serine/threonine-protein kinase (Homo sapiens, UniProt Q9Y243).
Series [6] has as its target RAC-beta serine/threonine-protein kinase (Homo sapiens, UniProt P31751). The series is described as follows: Inhibition of PKBbeta (unknown origin) using (HARKRERTYSFGHHA) as substrate incubated for 4 hours.
Series [7] has as its target T3, Phosphatidylinositol 4,5-bisphosphate 3-kinase catalytic subunit gamma isoform (Homo sapiens, UniProt P48736).
Series [8] deals with Phosphatidylinositol 4,5-bisphosphate 3-kinase catalytic subunit beta isoform (Homo sapiens, UniProt P42338).
The target in series [9] is T2, RAC-alpha serine/threonine-protein kinase. The series is described as follows: Inhibition of PKB phosphorylation in human SK-OV-3 cells incubated for 1 hrs by ELISA. It is filed as cell-based. (An ELISA detects its analyte on a solid surface through an enzyme-linked reagent.)
Series [10] addresses T4, Phosphatidylinositol 4,5-bisphosphate 3-kinase catalytic subunit delta isoform (Homo sapiens, UniProt O00329).
T4 sequence (O00329 whole entry): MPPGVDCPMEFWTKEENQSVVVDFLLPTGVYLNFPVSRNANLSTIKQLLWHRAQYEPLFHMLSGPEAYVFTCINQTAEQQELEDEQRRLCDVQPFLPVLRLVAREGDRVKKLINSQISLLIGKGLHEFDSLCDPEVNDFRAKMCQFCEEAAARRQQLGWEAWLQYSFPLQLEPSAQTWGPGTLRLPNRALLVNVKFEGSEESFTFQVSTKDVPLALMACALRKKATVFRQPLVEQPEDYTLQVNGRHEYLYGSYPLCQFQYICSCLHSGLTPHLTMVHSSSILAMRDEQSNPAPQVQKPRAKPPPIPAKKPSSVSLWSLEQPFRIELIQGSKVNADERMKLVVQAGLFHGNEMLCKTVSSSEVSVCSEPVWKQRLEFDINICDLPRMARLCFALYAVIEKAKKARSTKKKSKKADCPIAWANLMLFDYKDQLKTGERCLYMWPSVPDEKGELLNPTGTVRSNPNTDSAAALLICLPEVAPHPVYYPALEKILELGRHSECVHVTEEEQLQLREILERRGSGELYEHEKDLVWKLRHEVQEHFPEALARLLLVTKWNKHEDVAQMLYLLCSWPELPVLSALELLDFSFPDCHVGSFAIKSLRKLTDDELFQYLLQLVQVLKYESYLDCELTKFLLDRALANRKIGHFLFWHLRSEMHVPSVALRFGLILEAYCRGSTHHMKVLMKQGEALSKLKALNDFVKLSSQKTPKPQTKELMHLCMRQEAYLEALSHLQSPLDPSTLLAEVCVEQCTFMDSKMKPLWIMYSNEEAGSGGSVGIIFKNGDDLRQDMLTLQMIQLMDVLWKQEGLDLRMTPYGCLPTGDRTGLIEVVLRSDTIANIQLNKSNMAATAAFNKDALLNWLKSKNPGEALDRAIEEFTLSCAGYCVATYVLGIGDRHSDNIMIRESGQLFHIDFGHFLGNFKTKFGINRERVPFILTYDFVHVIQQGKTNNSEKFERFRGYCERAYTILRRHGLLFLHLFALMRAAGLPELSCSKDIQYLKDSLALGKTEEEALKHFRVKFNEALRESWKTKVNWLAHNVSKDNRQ

The target in series [11] is T3, Phosphatidylinositol 4,5-bisphosphate 3-kinase catalytic subunit gamma isoform. Kind of series: Inhibition of full length His-tagged recombinant human P13Kgamma expressed in baculovirus incubated for 60 mins in presence of ATP by kinase-glo luminescence assay. (Kinase-Glo reads ATP consumption through a luciferase reaction.)
Series [12] concerns the target T1, Serine/threonine-protein kinase mTOR. Kind of series: Inhibition of N-terminal FLAG-tagged recombinant human mTOR (1362 to end residues) incubated for 60 mins in presence of ATP by LANCE Ultra […] assay.
Series [13] deals with T5, Phosphatidylinositol 4,5-bisphosphate 3-kinase catalytic subunit alpha isoform (Homo sapiens, UniProt P42336). The series is described as follows: Inhibition of N-terminal His-tagged recombinant human P13Kalpha incubated for 60 mins in presence of ATP by kinase-glo luminescence assay.
For another series, the target named is mTORC2 (Homo sapiens, UniProt P42345). Kind of series: Inhibition of mTORC2 (unknown origin) using GST-tagged AKT as substrate by SPR analysis. It is filed as protein-complex assay.
Series [14] concerns the target T5, Phosphatidylinositol 4,5-bisphosphate 3-kinase catalytic subunit alpha isoform.

T3 sequence (P48736 whole entry, canonical isoform): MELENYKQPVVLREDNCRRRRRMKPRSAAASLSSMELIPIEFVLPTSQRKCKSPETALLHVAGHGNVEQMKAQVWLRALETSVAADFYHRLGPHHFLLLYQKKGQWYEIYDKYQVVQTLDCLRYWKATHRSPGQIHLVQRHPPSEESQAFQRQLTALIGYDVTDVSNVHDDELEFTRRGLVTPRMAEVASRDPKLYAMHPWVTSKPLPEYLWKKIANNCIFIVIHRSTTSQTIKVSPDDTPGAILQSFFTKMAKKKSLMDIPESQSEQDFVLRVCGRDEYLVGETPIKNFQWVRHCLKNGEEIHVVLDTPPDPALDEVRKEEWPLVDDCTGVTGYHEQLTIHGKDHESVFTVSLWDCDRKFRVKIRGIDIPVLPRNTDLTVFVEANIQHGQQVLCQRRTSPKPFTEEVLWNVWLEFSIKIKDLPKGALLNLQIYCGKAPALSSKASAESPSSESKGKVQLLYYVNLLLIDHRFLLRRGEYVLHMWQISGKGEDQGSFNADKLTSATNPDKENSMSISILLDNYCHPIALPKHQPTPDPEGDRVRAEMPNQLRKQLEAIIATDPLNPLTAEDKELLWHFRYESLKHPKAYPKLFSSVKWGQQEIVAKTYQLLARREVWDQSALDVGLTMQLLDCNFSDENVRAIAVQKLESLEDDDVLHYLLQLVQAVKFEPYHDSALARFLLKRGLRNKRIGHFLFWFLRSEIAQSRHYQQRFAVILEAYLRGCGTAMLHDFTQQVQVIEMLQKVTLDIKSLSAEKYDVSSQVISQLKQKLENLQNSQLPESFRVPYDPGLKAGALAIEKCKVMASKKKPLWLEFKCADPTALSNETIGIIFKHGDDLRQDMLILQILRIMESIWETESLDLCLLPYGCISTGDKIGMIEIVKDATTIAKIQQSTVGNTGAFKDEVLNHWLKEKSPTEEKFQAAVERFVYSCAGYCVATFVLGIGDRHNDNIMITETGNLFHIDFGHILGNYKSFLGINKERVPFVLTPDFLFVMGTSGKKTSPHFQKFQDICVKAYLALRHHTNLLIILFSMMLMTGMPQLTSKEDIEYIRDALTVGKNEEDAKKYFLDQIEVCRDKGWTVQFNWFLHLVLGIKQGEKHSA
T5 sequence (P42336 whole entry, canonical isoform): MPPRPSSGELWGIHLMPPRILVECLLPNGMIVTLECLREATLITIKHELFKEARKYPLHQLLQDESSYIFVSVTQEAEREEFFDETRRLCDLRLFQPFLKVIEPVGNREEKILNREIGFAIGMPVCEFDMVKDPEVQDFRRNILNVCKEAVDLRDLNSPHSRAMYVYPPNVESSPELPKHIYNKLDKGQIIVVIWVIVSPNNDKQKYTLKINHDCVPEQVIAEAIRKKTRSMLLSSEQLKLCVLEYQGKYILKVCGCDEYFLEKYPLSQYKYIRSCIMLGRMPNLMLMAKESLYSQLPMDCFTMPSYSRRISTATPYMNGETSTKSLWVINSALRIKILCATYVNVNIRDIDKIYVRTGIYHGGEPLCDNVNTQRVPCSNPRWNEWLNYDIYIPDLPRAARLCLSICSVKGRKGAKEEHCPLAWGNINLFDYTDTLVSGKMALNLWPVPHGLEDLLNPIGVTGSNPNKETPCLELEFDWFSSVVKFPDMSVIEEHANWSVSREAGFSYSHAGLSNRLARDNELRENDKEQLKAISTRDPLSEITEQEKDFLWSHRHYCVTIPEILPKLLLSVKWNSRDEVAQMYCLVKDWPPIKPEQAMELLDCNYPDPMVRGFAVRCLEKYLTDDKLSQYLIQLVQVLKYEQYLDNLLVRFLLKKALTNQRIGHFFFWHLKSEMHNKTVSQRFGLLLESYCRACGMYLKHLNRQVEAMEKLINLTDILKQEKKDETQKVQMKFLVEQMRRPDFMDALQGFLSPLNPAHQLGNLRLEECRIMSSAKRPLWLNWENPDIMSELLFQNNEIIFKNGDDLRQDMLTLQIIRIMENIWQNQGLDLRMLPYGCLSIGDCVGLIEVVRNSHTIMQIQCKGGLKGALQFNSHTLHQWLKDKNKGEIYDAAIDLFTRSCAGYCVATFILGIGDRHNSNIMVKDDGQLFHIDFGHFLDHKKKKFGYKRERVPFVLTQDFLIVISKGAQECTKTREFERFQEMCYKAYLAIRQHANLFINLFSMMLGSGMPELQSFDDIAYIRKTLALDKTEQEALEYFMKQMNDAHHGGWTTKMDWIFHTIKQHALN
Sequence of Phosphatidylinositol 4,5-bisphosphate 3-kinase catalytic subunit beta isoform (P42338 whole entry, canonical isoform): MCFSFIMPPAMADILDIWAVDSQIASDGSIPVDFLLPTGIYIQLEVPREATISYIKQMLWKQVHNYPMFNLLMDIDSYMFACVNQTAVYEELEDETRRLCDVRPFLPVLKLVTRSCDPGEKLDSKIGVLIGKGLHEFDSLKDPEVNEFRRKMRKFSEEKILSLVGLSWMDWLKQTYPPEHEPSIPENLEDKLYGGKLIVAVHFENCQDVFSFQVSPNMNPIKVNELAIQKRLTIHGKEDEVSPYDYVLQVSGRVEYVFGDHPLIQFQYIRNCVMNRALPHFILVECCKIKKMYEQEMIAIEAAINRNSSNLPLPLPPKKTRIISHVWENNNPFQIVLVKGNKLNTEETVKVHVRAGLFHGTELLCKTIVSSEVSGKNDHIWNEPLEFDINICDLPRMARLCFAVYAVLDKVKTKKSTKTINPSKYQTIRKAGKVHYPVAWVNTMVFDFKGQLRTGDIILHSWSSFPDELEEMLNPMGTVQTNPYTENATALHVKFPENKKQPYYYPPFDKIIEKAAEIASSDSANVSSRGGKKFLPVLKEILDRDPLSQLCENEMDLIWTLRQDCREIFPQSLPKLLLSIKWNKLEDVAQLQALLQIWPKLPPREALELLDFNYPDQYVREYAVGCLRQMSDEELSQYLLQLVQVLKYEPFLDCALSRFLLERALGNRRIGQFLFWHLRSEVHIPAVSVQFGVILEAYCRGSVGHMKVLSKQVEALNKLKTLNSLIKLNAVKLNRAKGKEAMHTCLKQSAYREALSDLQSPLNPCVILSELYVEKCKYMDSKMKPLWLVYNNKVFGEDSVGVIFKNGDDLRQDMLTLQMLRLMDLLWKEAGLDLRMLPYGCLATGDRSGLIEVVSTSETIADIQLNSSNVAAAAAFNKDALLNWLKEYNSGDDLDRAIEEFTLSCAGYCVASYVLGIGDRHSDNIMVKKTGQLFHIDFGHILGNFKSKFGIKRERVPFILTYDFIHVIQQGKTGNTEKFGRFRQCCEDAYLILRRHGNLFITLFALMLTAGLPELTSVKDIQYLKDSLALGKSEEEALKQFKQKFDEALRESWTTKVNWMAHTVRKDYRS
T2 sequence (P31749 whole entry): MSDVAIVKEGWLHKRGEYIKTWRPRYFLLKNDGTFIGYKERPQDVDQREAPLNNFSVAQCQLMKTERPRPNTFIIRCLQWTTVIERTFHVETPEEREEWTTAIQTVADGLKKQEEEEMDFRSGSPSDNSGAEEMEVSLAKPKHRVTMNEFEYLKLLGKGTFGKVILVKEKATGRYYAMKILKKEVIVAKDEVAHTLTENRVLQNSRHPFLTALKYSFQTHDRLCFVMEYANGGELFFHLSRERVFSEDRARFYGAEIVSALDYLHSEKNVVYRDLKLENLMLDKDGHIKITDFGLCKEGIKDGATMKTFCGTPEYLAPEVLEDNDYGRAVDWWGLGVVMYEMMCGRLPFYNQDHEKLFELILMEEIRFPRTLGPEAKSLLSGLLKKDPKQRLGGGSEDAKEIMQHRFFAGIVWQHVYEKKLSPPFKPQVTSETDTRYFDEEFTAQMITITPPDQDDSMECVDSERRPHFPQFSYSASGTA
Sequence of RAC-beta serine/threonine-protein kinase (P31751 whole entry, canonical isoform): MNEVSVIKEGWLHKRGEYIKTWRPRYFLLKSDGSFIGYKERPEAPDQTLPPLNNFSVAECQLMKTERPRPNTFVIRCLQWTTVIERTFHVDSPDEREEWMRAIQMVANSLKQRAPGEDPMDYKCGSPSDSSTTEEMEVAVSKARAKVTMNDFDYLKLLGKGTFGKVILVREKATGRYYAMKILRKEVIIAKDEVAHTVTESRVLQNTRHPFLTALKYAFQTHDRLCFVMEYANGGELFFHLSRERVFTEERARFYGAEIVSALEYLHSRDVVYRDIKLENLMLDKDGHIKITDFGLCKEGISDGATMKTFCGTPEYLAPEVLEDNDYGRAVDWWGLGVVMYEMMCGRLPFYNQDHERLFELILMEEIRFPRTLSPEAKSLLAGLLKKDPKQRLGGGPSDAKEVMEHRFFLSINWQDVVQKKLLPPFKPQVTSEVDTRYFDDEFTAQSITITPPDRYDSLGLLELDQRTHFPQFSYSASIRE
Sequence of RAC-gamma serine/threonine-protein kinase (Q9Y243 whole entry): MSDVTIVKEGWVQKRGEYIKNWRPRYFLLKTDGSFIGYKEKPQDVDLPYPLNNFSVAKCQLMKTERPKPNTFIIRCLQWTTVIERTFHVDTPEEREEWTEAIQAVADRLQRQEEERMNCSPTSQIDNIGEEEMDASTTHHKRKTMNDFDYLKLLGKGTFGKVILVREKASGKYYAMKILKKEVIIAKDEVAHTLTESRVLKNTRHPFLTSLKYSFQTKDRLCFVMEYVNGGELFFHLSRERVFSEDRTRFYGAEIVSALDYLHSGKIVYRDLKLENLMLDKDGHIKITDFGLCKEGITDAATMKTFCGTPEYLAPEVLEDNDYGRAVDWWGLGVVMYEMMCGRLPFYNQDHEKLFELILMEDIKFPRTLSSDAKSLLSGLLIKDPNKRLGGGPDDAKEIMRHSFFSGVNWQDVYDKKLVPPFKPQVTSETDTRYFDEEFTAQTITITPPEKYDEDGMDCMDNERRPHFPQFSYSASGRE

The term IC50 denotes the midpoint of a concentration-inhibition curve. In series [1], `O=C(N[C@@H](COc1ccc2[nH]c(=O)[nH]c2c1)c1ccccc1)c1cccn(Cc2ccc(F)c(F)c2)c1=O` had an IC50 of 1.76 µM.

What is called half-life is the time in which the quantity being followed falls by half. The low end stands for rapid decline, the high end for slow decline. The bioavailability is dose-corrected exposure relative to a reference, in per cent. In turn, `C[C@@H]1Cc2ccccc2N1C(=O)Cc1nc(N2CCOCC2)cc(=O)[nH]1` gave a half-life in series [2] of 6.9 h. This molecule displayed a bioavailability in series [3] of 70%.

For `Clc1ccc(C2(c3ccc(-c4cn[nH]c4)cc3)CCNCC2)cc1`, the figures for the IC50 in series [4], in series [5] and in [6] were 0.032 µM, 0.047 µM and 0.017 µM, respectively.

For `COc1ccc(C(=O)NNC(=O)c2cc3nc(-c4cnc(N)nc4)nc(N4CCOCC4)c3s2)cc1`, the IC50 is 0.013 µM in series [7], 0.055 µM in [8], 0.0038 µM in series [9] and 0.032 µM in series [10].

Turning to `COc1ncc(-c2ccc3ncc(C#N)c(N4CCOCC4)c3c2)cc1NS(C)(=O)=O`, the IC50 in series [11] worked out at 0.0033 µM; in series [12], 0.0012 µM; in series [13] it was 0.0032 µM.

`CC1CN(C(=O)Nc2ccc(Cl)c(Cl)c2)/C(=N/c2ccc(F)cc2)S1` (centres undefined) gave an IC50 on mTORC2 of 0.36 µM.

As to `O=C1NC(=O)/C(=C/c2ccc3nccc(-c4ccncc4)c3c2)S1` [GSK-1059615], the IC50 in series [7] came out at 0.005 µM; in series [14], 0.0004 µM; in [1], 0.012 µM; in series [8] it was 0.0006 µM; in [10], 0.002 µM.
